In ChEMBL document CHEMBL5346876, “Hybrids of polyphenolic/quinone acids, the potential preventive and therapeutic drugs for PD: Disaggregate α-Syn fibrils, inhibit inclusions, and repair damaged neurons in mice” (Eur J Med Chem, 2023):
Activity calls are given as the source filed them. The rule behind the calls is not given here.

How the values were obtained:
H4 [1] = assay: (§1) Antioxidant activity in H2O2-induced human H4 cells assessed as reduction in ROS generation ratio preincubated with H2O2 for 3 hrs followed by DCFH-DA addition for 30 mins and further incubated with compound and measured after 30 mins by DCFH-DA dye based fluorescence microplate reader analysis; format: functional, cell-based; settings: dose 3-10 µM
H4 [2] = assay: Antioxidant activity in H2O2-induced human H4 cells assessed as reduction in exogenous ROS level by measuring dark green fluorescence preincubated with H2O2 for 3 hrs followed by compound addition and measured after 30 mins by flow cytometric analysis; format: functional, cell-based
H4 [3] = assay: Antioxidant activity in H2O2-induced human H4 cells assessed as reduction in endogenous ROS level by measuring green fluorescence preincubated with H2O2 for 3 hrs followed by compound addition and measured after 30 mins by flow cytometric analysis; format: functional, cell-based
[4] = Cytotoxicity against human SH-SY5Y cells assessed as cell viability at 100 uM incubated for 48 hrs by CCK-8 assay relative to control; format: toxicity, cell-based; settings: read-out: Activity
[5] = Cytotoxicity against human H4 cells assessed as cell viability at 100 uM incubated for 48 hrs by CCK-8 assay relative to control; format: toxicity, cell-based; settings: read-out: Activity
H4 [6] = assay: as §1, with “as” for “as reduction in”, “scavenging at 10 uM” for “generation ratio”, “analysis relative to control” for “analysis”; format: functional; settings: 0.5 h
Mus musculus [7] = assay: Neuroprotective activity against 6-OHDA-induced lesioned C57 mouse model of Parkinson's disease assessed as reduction of dopaminergic neuronal damage at 2.7 ug administered via right striatum and measured after 21 days; format: functional, organism-based; settings: dose 2.7 µg, time 21.0 day
Mus musculus [8] = assay: Neuroprotective activity against 6-OHDA-induced lesioned C57 mouse model of Parkinson's disease assessed as protection of dopaminergic neuronal damage administered via right striatum and measured after 21 days; format: functional, organism-based; settings: time 21.0 day
[9] = Toxicity in C57 mouse assessed as effect on survival of ipsilateral dopaminergic neuron in substantia nigra pars reticulate of brain administered via right striatum and measured after 21 days by immunofluorescence staining analysis; settings: in vivo, other, 504 h, time 21 day
Mus musculus [10] = assay: Neuroprotective activity against 6-OHDA-induced lesioned C57 mouse model of Parkinson's disease assessed as improvement of weakened grip administered via right striatum and measured after 14 days by rotarod test; format: functional, organism-based; settings: time 14.0 day
[11] = Toxicity in C57 mouse assessed as effect on survival of ipsilateral dopaminergic neuron in caudate putamen nucleus of brain administered via right striatum and measured after 21 days by immunofluorescence staining analysis; settings: in vivo, other, 504 h, time 21 day
Mus musculus [12] = assay: (§2) Neuroprotective activity against 6-OHDA-induced lesioned C57 mouse model of Parkinson's disease assessed as increase in survival of ipsilateral dopaminergic neuron in caudate putamen nucleus of brain by measuring tyrosine hydroxylase fluorescence intensity administered via right striatum and measured after 21 days by immunofluorescence staining analysis (reference value: 11.5 %); format: functional; settings: time 21 day
[13] = Toxicity in C57 mouse assessed as effect on time spend in rod administered via right striatum and measured after 14 days by rotarod test; settings: in vivo, other, 336 h, time 14 day
Mus musculus [14] = assay: Neuroprotective activity against 6-OHDA-induced lesioned C57 mouse model of Parkinson's disease assessed as reduction in weight loss administered via right striatum and measured after 14 days; format: functional, organism-based; settings: time 14.0 day
Mus musculus [15] = assay: Neuroprotective activity against 6-OHDA-induced lesioned C57 mouse model of Parkinson's disease assessed as reduction in ipsilateral dopaminergic neuron damage in caudate putamen nucleus of brain administered via right striatum and measured after 21 days by immunofluorescence staining analysis; format: functional, organism-based; settings: time 21.0 day
Mus musculus [16] = assay: Neuroprotective activity against 6-OHDA-induced lesioned C57 mouse model of Parkinson's disease assessed as reduction in apomorphine-induced contralateral rotation by measuring decrease in turn number preadministered with compound for 14 days via right striatum and measured 30 mins after apomorphine addition by videotaping analysis relative to control; format: functional; set-up: scale not given: the % may be the effect or the level left; settings: time 336.5 hrs
Mus musculus [17] = assay: Neuroprotective activity against 6-OHDA-induced lesioned C57 mouse model of Parkinson's disease assessed as improvement of poor balance administered via right striatum and measured after 14 days by rotarod test; format: functional, organism-based; settings: time 14.0 day
Mus musculus [18] = assay: as §2, with “substantia nigra pars reticulate” for “caudate putamen nucleus”, “9.7” for “11.5”; format: functional; settings: time 21 day
Mus musculus [19] = assay: Neuroprotective activity against 6-OHDA-induced lesioned C57 mouse model of Parkinson's disease assessed as improvement of stiff limbs administered via right striatum and measured after 14 days by rotarod test; format: functional, organism-based; settings: time 14.0 day

Row | SMILES | Activity (H4 [1]) | viability at 48 h, 100 µM [4] [%] | viability at 48 h, 100 µM [5] [%] | Activity (H4 [6]) [%] | further results
1 | O=C(/C=C/c1cc(O)ccc1O)Nc1ccc(NC(=O)c2ccc(F)cc2F)cc1 | Dose-Dependent Effect | > 85 | > 85 |  | Activity (H4 [2]): Active; Activity (H4 [3]): Active
2 | O=C1C=CC(=O)C(/C=C/C(=O)Nc2ccc(NC(=O)c3ccc(F)cc3)cc2)=C1 | Dose-Dependent Effect | > 85 | > 85 | 70 | 
3 | O=C(/C=C/c1cc(O)ccc1O)Nc1ccc(NC(=O)c2ccc(O)cc2)cc1 | Dose-Dependent Effect | > 85 | > 85 | 70 | 
4 | O=C1C=CC(=O)C(/C=C/C(=O)Nc2ccc(NC(=O)c3ccc(F)c(F)c3)cc2)=C1 | Dose-Dependent Effect | > 85 | > 85 |  | 
5 | O=C1C=CC(=O)C(/C=C/C(=O)Nc2ccc(NC(=O)c3ccc(F)cc3F)cc2)=C1 | Dose-Dependent Effect | > 85 | > 85 |  | Activity (H4 [2]): Active; Activity (H4 [3]): Active
6 | O=C(/C=C/c1cc(O)ccc1O)Nc1ccc(NC(=O)/C=C/c2cc(O)ccc2O)cc1 | Dose-Dependent Effect | > 85 | > 85 | 70 | Activity (Mus musculus [7]): Active; Activity (Mus musculus [8]): Dose-Dependent Effect; Activity [9]: Non-Toxic; Activity (Mus musculus [10]): Active; Activity [11]: Non-Toxic; Flu intensity (Mus musculus [12]): 66.2%; Time [13]: 264 s; Activity (Mus musculus [14]): Active; Activity (Mus musculus [15]): Active; Activity (Mus musculus [16]): 87%; Activity (Mus musculus [17]): Active; Flu intensity (Mus musculus [18]): 65.1%; Activity (Mus musculus [19]): Active
7 | O=C(/C=C/c1ccc(O)c(O)c1)Nc1ccc(NC(=O)c2ccc(F)cc2)cc1 | Dose-Dependent Effect |  |  | 70 | 
